This note sets out measurements from patent US9371363B2, “Peptides and their use” (Novabiotics Limited, priority 2007, dated 2016).

Assay [1] deals with P. acnes. It counts as cell-based. How it is done:
(§1) Broth Dilution Antibacterial Susceptibility Testing
(§2) The sensitivity of relevant bacterial strains to the peptides (was determined using Clinical Laboratory Standard Institute (CLSI; formerly NCCLS) Approved Standards. Bacterial susceptibility was tested using “Methods for Dilution Antimicrobial Susceptibility Tests for Bacteria That Grow […]; Approved Standard—Seventh Edition M7-A7”

Assay [2] deals with S. aureus. The class given is cell-based. How it is done: as §1, §2
Setting [3] is: P. acnes, values marked * in mg/ml.

Read-outs that look alike come from different tables or passages of the source. Where no end group is shown, it is not given here.

In the case of `N=C(N)NCCC[C@H](NC(=O)[C@H](CCCNC(=N)N)NC(=O)[C@H](CCCNC(=N)N)NC(=O)[C@H](CCCNC(=N)N)NC(=O)[C@H](CCCNC(=N)N)NC(=O)[C@H](CCCNC(=N)N)NC(=O)[C@H](CCCNC(=N)N)NC(=O)[C@H](CCCNC(=N)N)NC(=O)[C@@H](N)CCCNC(=N)N)C(=O)O` [NP316, RRRRRRRRR (SEQ ID NO: 12)], the “Minimum Inhibitory Concentration, antimicrobial activity, P. acnes” value (shortened to “Minimum Inhibitory Concentration … P. acnes”) in assay [1] (P. acnes, CLSI broth dilution) turned out to be 0.0313 mM.
Regarding `N=C(N)NCCC[C@H](NC(=O)[C@H](CCCNC(=N)N)NC(=O)[C@H](CCCNC(=N)N)NC(=O)[C@H](CCCNC(=N)N)NC(=O)[C@H](CCCNC(=N)N)NC(=O)[C@H](CCCNC(=N)N)NC(=O)[C@H](CCCNC(=N)N)NC(=O)[C@H](CCCNC(=N)N)NC(=O)[C@H](CCCNC(=N)N)NC(=O)[C@H](CCCNC(=N)N)NC(=O)[C@@H](N)CCCNC(=N)N)C(=O)O` [NP317, RRRRRRRRRRR (SEQ ID NO: 13)], the “Minimum Inhibitory Concentration, antimicrobial activity, S. aureus” value (shortened to “Minimum Inhibitory Concentration … S. aureus”) in assay [2] came out at 0.25 mM.
For the compound `N=C(N)NCCC[C@H](NC(=O)[C@H](CCCNC(=N)N)NC(=O)[C@H](CCCNC(=N)N)NC(=O)[C@H](CCCNC(=N)N)NC(=O)[C@H](CCCNC(=N)N)NC(=O)[C@H](CCCNC(=N)N)NC(=O)[C@H](CCCNC(=N)N)NC(=O)[C@H](CCCNC(=N)N)NC(=O)[C@H](CCCNC(=N)N)NC(=O)[C@H](CCCNC(=N)N)NC(=O)[C@H](CCCNC(=N)N)NC(=O)[C@H](CCCNC(=N)N)NC(=O)[C@@H](N)CCCNC(=N)N)C(=O)O` [NP318, RRRRRRRRRRRRR (SEQ ID NO: 14)], the “Minimum Inhibitory Concentration … P. acnes” value in assay [1] was under 0.0156 mM. Also, in assay [2], the “Minimum Inhibitory Concentration … S. aureus” value is reported as 0.125 mM.
Consider `N=C(N)NCCC[C@H](NC(=O)[C@H](CCCNC(=N)N)NC(=O)[C@H](CCCNC(=N)N)NC(=O)[C@H](CCCNC(=N)N)NC(=O)[C@H](CCCNC(=N)N)NC(=O)[C@H](CCCNC(=N)N)NC(=O)[C@H](CCCNC(=N)N)NC(=O)[C@H](CCCNC(=N)N)NC(=O)[C@H](CCCNC(=N)N)NC(=O)[C@H](CCCNC(=N)N)NC(=O)[C@H](CCCNC(=N)N)NC(=O)[C@H](CCCNC(=N)N)NC(=O)[C@@H](N)CCCNC(=N)N)C(=O)O` [NP337, RRRRRRRRRRRRR (SEQ ID NO: 31)], for which the “Minimum Inhibitory Concentration … P. acnes” value in assay [1] turned out to be 0.0025 mM.
With `N=C(N)NCCC[C@@H](N)C(=O)N[C@H](CCCNC(=N)N)C(=O)N[C@H](CCCNC(=N)N)C(=O)N[C@H](CCCNC(=N)N)C(=O)N[C@H](CCCNC(=N)N)C(=O)N[C@H](CCCNC(=N)N)C(=O)N[C@H](CCCNC(=N)N)C(=O)N[C@H](CCCNC(=N)N)C(=O)N[C@H](CCCNC(=N)N)C(=O)N[C@H](CCCNC(=N)N)C(=O)N[C@H](CCCNC(=N)N)C(=O)N[C@H](CCCNC(=N)N)C(=O)N[C@H](CCCNC(=N)N)C(N)=O` [NP341, dRdRdRdRdRdRdRdRdRdRdRdRdR—CONH (SEQ ID NO: 31)], the “Minimum Inhibitory Concentration … S. aureus” value in assay [2] was 0.125 mM.
Take (H)n, n = 32-161 [NP131]: the “Minimum Inhibitory Concentration … P. acnes” value in assay [1] (setting [3]) is >0.1* mg/ml. Further, in assay [2] (S. aureus, values marked * in mg/ml), the “Minimum Inhibitory Concentration … S. aureus” value is reported as >2* mg/ml.
Consider (H)n, n = >32 [NP132], for which, in assay [1] (setting [3]), the “Minimum Inhibitory Concentration … P. acnes” value is recorded as 0.1* mg/ml.
(K)n, n = 3-14 [NP112]: the “Minimum Inhibitory Concentration … P. acnes” value in assay [1] (setting [3]) is 0.1* mg/ml.
On the same count and under the same terms, for (K)n, n = 7-34 [NP106] the value was 0.125* mg/ml; for (R)n, n = 86-402 [NP122], 0.01* mg/ml; for (R)n, n = >402 [NP123], 0.01* mg/ml.
In the case of “GKKEKPEKKVKK [NP331, GKKEKPEKKVKK (SEQ ID NO: 25)]”, the “Minimum Inhibitory Concentration … S. aureus” value in assay [2] was over 2 mM.
On the same count and under the same terms, in the case of “KKKDKVKK [NP334, KKKDKVKK (SEQ ID NO: 28)]” it was over 2 mM; in that of KKKKKEGKKQEKMLD [NP333], over 2 mM.
On to “KKKKKKKKK [NP345, KKKKKKKKK (SEQ ID NO: 33)]”, for which the “Minimum Inhibitory Concentration … P. acnes” value in assay [1] is given as 2.5 mM.
As to KKKKKKKKKKKKKKK [NP348], the “Minimum Inhibitory Concentration … P. acnes” value in assay [1] (P. acnes, CLSI broth dilution) turned out to be 0.0625 mM. The “Minimum Inhibitory Concentration … S. aureus” value in assay [2] (S. aureus, CLSI broth dilution) is 0.25 mM.
As to KLTKPKPQAESKKKKK [NP332], the “Minimum Inhibitory Concentration … S. aureus” value in assay [2] is listed as over 2 mM.
Same read-out and setting: for “KVRQGTLKKAR [NP335, KVRQGTLKKAR (SEQ ID NO: 29)]” the value was over 2 mM.
Still for that read-out and setting: in the case of PKTKAKAKAKKGKGKD [NP336] it was over 2 mM.
For “RRRRVVRRRR [NP310, RRRRVVRRRR (SEQ ID NO: 10)]”, the “Minimum Inhibitory Concentration … P. acnes” value in assay [1] amounted to 0.5 mM. Besides, the “Minimum Inhibitory Concentration … S. aureus” value in assay [2] is listed as over 2 mM.
With RRRVRRR [NP306, RRRVRRR (SEQ ID NO: 6)], the “Minimum Inhibitory Concentration … S. aureus” value in assay [2] is reported as over 2 mM.
On the same count and under the same terms, for “RRRVVRRR [NP308, RRRVVRRR (SEQ ID NO: 8)]” the value was over 2 mM; for “RRRWRRR [NP325, RRRWRRR (SEQ ID NO: 21)]”, over 2 mM; for RRVRR [NP303, RRVRR (SEQ ID NO: 3)], over 2 mM.
In the case of “RRVRRVRR [NP309, RRVRRVRR (SEQ ID NO: 9)]”, in assay [1], the “Minimum Inhibitory Concentration … P. acnes” value was 1 mM.
With RRVRVR [NP304, RRVRVR (SEQ ID NO: 4)], the “Minimum Inhibitory Concentration … S. aureus” value in assay [2] was over 2 mM.
Same read-out and setting: for RRVRVRR [NP307, RRVRVRR (SEQ ID NO: 7)] the value was over 2 mM.
On the same count and under the same terms, in the case of RRVVR [NP302, RRVVR (SEQ ID NO: 2)] it was over 2 mM; in that of RRVVRR [NP305, RRVVRR (SEQ ID NO: 5)], over 2 mM.
In the case of “RRVVRRVVRR [NP311, RRVVRRVVRR (SEQ ID NO: 11)]”, the “Minimum Inhibitory Concentration … P. acnes” value in assay [1] is recorded as 2 mM. For the same compound, in assay [2], the “Minimum Inhibitory Concentration … S. aureus” value is recorded as over 2 mM.
With RRWRR [NP322, RRWRR (SEQ ID NO: 18)], the “Minimum Inhibitory Concentration … S. aureus” value in assay [2] is given as over 2 mM.
Still for that read-out and setting: in the case of “RRWRRWRR [NP328, RRWRRWRR (SEQ ID NO: 24)]” it was over 2 mM.
Same read-out and setting: in the case of RRWRWR [NP323, RRWRWR (SEQ ID NO: 19)] it was over 2 mM.
The same measure, in the same setting: in the case of “RRWRWRR [NP326, RRWRWRR (SEQ ID NO: 22)]” it was over 2 mM; in that of RRWWR [NP321, RRWWR (SEQ ID NO: 17)], over 2 mM.
Take RRWWRR [NP324, RRWWRR (SEQ ID NO: 20)]: the “Minimum Inhibitory Concentration … S. aureus” value in assay [2] is reported as 1 mM.
Same read-out and setting: for RVRVR [NP301, RVRVR (SEQ ID NO: 1)] the value was over 2 mM; for RWRWR [NP320, RWRWR (SEQ ID NO: 16)], over 2 mM.
